Experiments:
[1] = Evaluation of solubility in water at 23° C.; assay type: physicochemical; conditions: stirred for 1 hour
Procedure: Each of the compounds was added to water at 23° C. under the atmospheric pressure, the components were stirred for 1 hour, and the solubility of the compound in water was obtained. The solubility of the compound was evaluated based on the following criteria.
A: the solubility in water at 23° C. was 0.1 mass % or lower
B: the solubility in water at 23° C. was higher than 0.1 mass % and 1 mass % or lower
C: the solubility in water at 23° C. was higher than 1 mass %

[2] = Evaluation of absorption maximum and absorbance ratio (500 nm/λmax) in solution; assay type: physicochemical; conditions: for Absorbance Ratio (500 nm/λmax) / Absorption Maximum (nm): solvent chloroform
Source text: In this specification, “having an absorption maximum in a wavelength range of 650 to 1000 nm” denotes having a maximum absorbance in a wavelength range of 650 to 1000 nm in an absorption spectrum of the near infrared absorbing compound in a solution. Examples of a measurement solvent used for the measurement of the absorption spectra of the near infrared absorbing compound in the solution include chloroform, methanol, dimethyl sulfoxide, ethyl acetate, and tetrahydrofuran. In the case of a compound which is soluble in chloroform, chloroform is used as the measurement solvent. In the case of a compound which is not soluble in chloroform, methanol is used. In addition, In the case of a compound which is not soluble in chloroform and methanol, dimethyl sulfoxide is used.
Each of the compounds was dissolved in a measurement solvent shown in the following tables (concentration: 2.5×10^−6 mol/L) to measure an absorption spectrum (optical path length: 10 mm).
In addition, an absorbance ratio (500 nm/λmax) as a value obtained by dividing an absorbance at a wavelength of 500 nm by an absorbance at an absorption maximum was evaluated based on the following criteria.
A: the absorbance ratio (500 nm/λmax) was 0.04 or lower
B: the absorbance ratio (500 nm/λmax) was higher 0.04 and 0.08 or lower
C: the absorbance ratio (500 nm/λmax) was higher than 0.08

| Absorption Maximum (nm) [2] [nm] | λmax (nm) of Second Near Infrared Absorbing Compound ([2]; as listed in Table 58) [nm] | Compound | Solubility [1] | Absorbance Ratio (500 nm/λmax) [2] |
| --- | --- | --- | --- | --- |
| 863 | – | CC(CCC(COc1cccc(-c2c3/c(=C(\C#N)c4cnc5ccccc5n4)n(B(c4ccccc4)c4ccccc4)c(-c4cccc(OCC(CCC(C)CC(C)(C)C)C(C)CC(C)(C)C)c4)c3/c(=C(\C#N)c3cnc4ccccc4n3)n2B(c2ccccc2)c2ccccc2)c1)C(C)CC(C)(C)C)CC(C)(C)C (stereo not shown) [III-28] | A (the solubility in water at 23 °C was 0.1 mass % or lower) | A (the absorbance ratio (500 nm/λmax) was 0.04 or lower) |
| 732 | – | Cc1ccccc1B(c1ccccc1C)n1c(-c2ccc(OCC(CCCCCCCC(C)C)CCCCCC(C)C)cc2)c2c(=C(C#N)c3nc4ccccc4o3)n(B(c3ccccc3C)c3ccccc3C)c(-c3ccc(OCC(CCCCCCCC(C)C)CCCCCC(C)C)cc3)c2c1=C(C#N)c1nc2ccccc2o1 (stereo not shown) [II-43] | A (the solubility in water at 23 °C was 0.1 mass % or lower) | A (the absorbance ratio (500 nm/λmax) was 0.04 or lower) |
| 719 | 719 | CC(CCC(COc1cccc(-c2c3/c(=C(\C#N)c4nc5ccccc5s4)n(B4Oc5ccccc5O4)c(-c4cccc(OCC(CCC(C)CC(C)(C)C)C(C)CC(C)(C)C)c4)c3/c(=C(\C#N)c3nc4ccccc4s3)n2B2Oc3ccccc3O2)c1)C(C)CC(C)(C)C)CC(C)(C)C (stereo not shown) [II-590] | A (the solubility in water at 23 °C was 0.1 mass % or lower) | A (the absorbance ratio (500 nm/λmax) was 0.04 or lower) |
| 863 | – | CC(C)CCCCCCCC(CCCCCC(C)C)COc1ccc(-c2c3c(=C(C#N)c4cnc5ccccc5n4)n(B(c4ccccc4)c4ccccc4)c(-c4ccc(OCC(CCCCCCCC(C)C)CCCCCC(C)C)cc4)c3c(=C(C#N)c3cnc4ccccc4n3)n2B(c2ccccc2)c2ccccc2)cc1 (stereo not shown) [III-9] | A (the solubility in water at 23 °C was 0.1 mass % or lower) | A (the absorbance ratio (500 nm/λmax) was 0.04 or lower) |
| 779 | – | N#CC(c1nc2ccccc2s1)=c1c2c(-c3ccc(O)cc3)n(B(c3ccccc3)c3ccccc3)c(=C(C#N)c3nc4ccccc4s3)c2c(-c2ccc(O)cc2)n1B(c1ccccc1)c1ccccc1 [II-524] | A (the solubility in water at 23 °C was 0.1 mass % or lower) | A (the absorbance ratio (500 nm/λmax) was 0.04 or lower) |
| 794 | – | COc1ccc2sc(C(C#N)=c3c4c(-c5ccc(OCC(CCCCCCCC(C)C)CCCCCC(C)C)cc5)n(B(c5ccccc5)c5ccccc5)c(=C(C#N)c5nc6cc(OC)ccc6s5)c4c(-c4ccc(OCC(CCCCCCCC(C)C)CCCCCC(C)C)cc4)n3B(c3ccccc3)c3ccccc3)nc2c1 (stereo not shown) [II-673] | A (the solubility in water at 23 °C was 0.1 mass % or lower) | A (the absorbance ratio (500 nm/λmax) was 0.04 or lower) |
| 772 | – | Cc1ccccc1B(c1ccccc1C)n1c(-c2ccc(OCC(CCCCCCCC(C)C)CCCCCC(C)C)cc2)c2c(=C(C#N)c3nc4ccccc4s3)n(B(c3ccccc3C)c3ccccc3C)c(-c3ccc(OCC(CCCCCCCC(C)C)CCCCCC(C)C)cc3)c2c1=C(C#N)c1nc2ccccc2s1 (stereo not shown) [II-541] | A (the solubility in water at 23 °C was 0.1 mass % or lower) | A (the absorbance ratio (500 nm/λmax) was 0.04 or lower) |

Source: patent US10947389B2, “Composition, film, near infrared cut filter, laminate, pattern forming method, solid image pickup element, image display device, infrared sensor, and color filter” (FUJIFILM Corporation, priority 2016, dated 2021)
